Experimental data from PubChem BioAssay AID330 (DTP/NCI, 2004).
Values joined by “and” are separate entries in the source; they are usually repeats but may differ in a detail not shown here. Equal entries are not always repeated. Toxic doses and inconclusive results are not listed. The calls were made as follows: active = survival T/C of 150% or more; inactive = T/C below 125% in these data.

Test system: P388 leukemia ip, CD2F1 mice, survival T/C
Assay: NCI In Vivo Anticancer Drug Screen. Data for tumor model P388 Leukemia (intraperitoneal) in CD2F1 (CDF1) mice
Settings: endpoint: median survival time, higher = longer survival
How it was run: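 Mice carrying the transplanted tumor received test compound or vehicle. Survival was recorded in each group, and the value is the treated-group measurement divided by that of the vehicle-treated control group.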

[1] = dose: 50.0 mg/kg/injection, schedule: Q01DX009 (ip), vehicle: Klucel (hydroxypropylcellulose) (HPC)
[2] = dose: 100.0 mg/kg/injection, schedule: Q01DX001 (ip), vehicle: saline with Tween-80
[3] = dose: 200.0 mg/kg/injection, schedule: Q01DX001 (ip), vehicle: saline with Tween-80
[4] = dose: 400.0 mg/kg/injection, schedule: Q01DX001 (ip), vehicle: saline with Tween-80
[5] = dose: 12.5 mg/kg/injection, schedule: Q01DX005 (ip), vehicle: Klucel (hydroxypropylcellulose) (HPC)
[6] = dose: 25.0 mg/kg/injection, schedule: Q01DX005 (ip), vehicle: Klucel (hydroxypropylcellulose) (HPC)
[7] = dose: 50.0 mg/kg/injection, schedule: Q01DX009 (ip), vehicle: saline
[8] = dose: 100.0 mg/kg/injection, schedule: Q01DX009 (ip), vehicle: saline
[9] = dose: 200.0 mg/kg/injection, schedule: Q01DX009 (ip), vehicle: saline
[10] = dose: 100.0 mg/kg/injection, schedule: Q01DX009 (ip), vehicle: Klucel (hydroxypropylcellulose) (HPC)
[11] = dose: 60.0 mg/kg/injection, schedule: Q01DX005 (ip), vehicle: saline with Tween-80
[12] = dose: 120.0 mg/kg/injection, schedule: Q01DX005 (ip), vehicle: saline with Tween-80
[13] = dose: 240.0 mg/kg/injection, schedule: Q01DX005 (ip), vehicle: saline with Tween-80
[14] = dose: 200.0 mg/kg/injection, schedule: Q01DX005 (ip), vehicle: Klucel (hydroxypropylcellulose) (HPC)

Measured: T/C

Nc1ccc2ccccc2c1-c1c(N)ccc2ccccc12
inactive: dose: 6.25 mg/kg/injection, schedule: Q01DX009 (ip), vehicle: Klucel (hydroxypropylcellulose) (HPC) 109 % of control | dose: 12.5 mg/kg/injection, schedule: Q01DX009 (ip), vehicle: Klucel (hydroxypropylcellulose) (HPC) 91 % of control | dose: 25.0 mg/kg/injection, schedule: Q01DX009 (ip), vehicle: Klucel (hydroxypropylcellulose) (HPC) 102 % of control | [1] 111 % of control

COc1cccc2c1C(=O)c1c(O)c3c(c(O)c1C2=O)CC(O)(C(C)=O)CC3OC1CC(NC(=O)C(CCCCN)NC(=O)C(N)CCN)C(O)C(C)O1 (configuration not stated)
inactive: dose: 2.5 mg/kg/injection, schedule: Q04DX003 (ip), vehicle: water 94 % of control | dose: 5.0 mg/kg/injection, schedule: Q04DX003 (ip), vehicle: water 94 % of control | dose: 10.0 mg/kg/injection, schedule: Q04DX003 (ip), vehicle: water 98 % of control | dose: 20.0 mg/kg/injection, schedule: Q04DX003 (ip), vehicle: water 101 % of control | dose: 40.0 mg/kg/injection, schedule: Q04DX003 (ip), vehicle: water 105 % of control | dose: 80.0 mg/kg/injection, schedule: Q04DX003 (ip), vehicle: distilled water + Tween-80 96 % of control | dose: 160.0 mg/kg/injection, schedule: Q04DX003 (ip), vehicle: distilled water + Tween-80 105 % of control | dose: 320.0 mg/kg/injection, schedule: Q04DX003 (ip), vehicle: distilled water + Tween-80 105 % of control

CSC(=S)n1nc(-c2ccccc2)c(N=Nc2cccc(Cl)c2Cl)c1-c1ccccc1
inactive: [2] 87 % of control | [3] 87 % of control | [4] 97 % of control

O=C1CC2C(O)OC(O)C(C1)N2C(=O)OCC(Cl)(Cl)Cl (configuration not stated)
inactive: dose: 6.25 mg/kg/injection, schedule: Q01DX005 (ip), vehicle: Klucel (hydroxypropylcellulose) (HPC) 106 % of control | [5] 106 % of control | [6] 114 % of control

COc1ccc2[nH]c3cc4ccncc4cc3c2c1
inactive: dose: 25.0 mg/kg/injection, schedule: Q04DX002 (ip), vehicle: saline with Tween-80 122 % of control | dose: 50.0 mg/kg/injection, schedule: Q04DX002 (ip), vehicle: saline with Tween-80 97 % of control | dose: 100.0 mg/kg/injection, schedule: Q04DX002 (ip), vehicle: saline with Tween-80 95 % of control | dose: 200.0 mg/kg/injection, schedule: Q04DX002 (ip), vehicle: saline with Tween-80 97 % of control

CN1CCN(c2ccncc2S(=O)(=O)N2CCN(C)CC2)CC1
inactive: [7] 97 % of control | [8] 97 % of control | [9] 87 % of control

CC(=O)OCC(=O)[C@@]1(O)CC[C@H]2[C@@H]3C[C@H](C)C4=CC(=O)CC[C@]4(C)[C@H]3[C@@H](O)C[C@@]21C
inactive: dose: 100.0 mg/kg/injection, schedule: Q04DX003 (ip), vehicle: saline with Tween-80 112 % of control | dose: 200.0 mg/kg/injection, schedule: Q04DX003 (ip), vehicle: saline with Tween-80 108 % of control | dose: 400.0 mg/kg/injection, schedule: Q04DX003 (ip), vehicle: saline with Tween-80 95 % of control

Nc1cc(-c2ccc(Cl)cc2)nn1-c1nnc(-c2ccccc2)c(-c2ccccc2)n1
inactive: dose: 50.0 mg/kg/injection, schedule: Q01DX005 (ip), vehicle: saline with Tween-80 93 % of control | dose: 100.0 mg/kg/injection, schedule: Q01DX005 (ip), vehicle: saline with Tween-80 100 % of control | dose: 200.0 mg/kg/injection, schedule: Q01DX005 (ip), vehicle: saline with Tween-80 103 % of control

C/C=C/C(=O)Nc1ncc([N+](=O)[O-])s1
inactive: [1] 111 % of control | [10] 114 % of control | dose: 200.0 mg/kg/injection, schedule: Q01DX009 (ip), vehicle: Klucel (hydroxypropylcellulose) (HPC) 113 % of control

CC(C)(C)c1ccc(C(=O)n2c(=S)oc3ccc(Cl)cc32)cc1
inactive: [11] 96 % of control | [12] 95 % of control | [13] 94 % of control

Cc1cc2c(c(O)cc(=O)n2C)c(=O)n1C
inactive: dose: 60.0 mg/kg/injection, schedule: Q01DX005 (ip), vehicle: Klucel (hydroxypropylcellulose) (HPC) 102 % of control | dose: 120.0 mg/kg/injection, schedule: Q01DX005 (ip), vehicle: Klucel (hydroxypropylcellulose) (HPC) 91 % of control | dose: 240.0 mg/kg/injection, schedule: Q01DX005 (ip), vehicle: Klucel (hydroxypropylcellulose) (HPC) 91 % of control

Cn1c2cc(O)cc(O)c2c(=O)c2cccc([N+](=O)[O-])c21
inactive: [2] 104 % of control | [3] 103 % of control | [4] 101 % of control

COc1ccc(/C=N/n2cnc3c(sc4ccccc43)c2=O)cc1
inactive: [5] 99 % of control | [6] 100 % of control | dose: 50.0 mg/kg/injection, schedule: Q01DX005 (ip), vehicle: Klucel (hydroxypropylcellulose) (HPC) 87 % of control and 92 % of control | [14] 92 % of control

OCC1CC=CCC1CO (configuration not stated)
inactive: dose: 50.0 mg/kg/injection, schedule: Q01DX009 (ip), vehicle: saline with Tween-80 96 % of control | dose: 100.0 mg/kg/injection, schedule: Q01DX009 (ip), vehicle: saline with Tween-80 101 % of control | dose: 200.0 mg/kg/injection, schedule: Q01DX009 (ip), vehicle: saline with Tween-80 100 % of control

O=[N+]([O-])c1cnccc1-n1nnc2ccccc21
inactive: [11] 96 % of control | [12] 96 % of control | [13] 104 % of control

CCN1CC2(COC)C(O)CC(OC)C34C5CC6(O)C(O)C5C(O)(C(O)C6OC)C(C(OC)C23)C14 (configuration not stated)
inactive: dose: 25.0 mg/kg/injection, schedule: Q01DX005 (ip), vehicle: saline 114 % of control | dose: 50.0 mg/kg/injection, schedule: Q01DX005 (ip), vehicle: saline 102 % of control | dose: 100.0 mg/kg/injection, schedule: Q01DX005 (ip), vehicle: saline 107 % of control | dose: 200.0 mg/kg/injection, schedule: Q01DX005 (ip), vehicle: saline 104 % of control

CN(Cc1ccccc1)CC(CCC1OCCO1)(CCC1OCCO1)c1ccccc1
inactive: [1] 96 % of control | [10] 91 % of control

N[N+]1(CCS(N)(=O)=O)CCOCC1
inactive: [7] 110 % of control | [8] 91 % of control | [9] 96 % of control

Cc1ccc(NC(=S)NNC(=S)NNc2ccccc2)cc1C
inactive: dose: 100.0 mg/kg/injection, schedule: Q01DX005 (ip), vehicle: Klucel (hydroxypropylcellulose) (HPC) 95 % of control | [14] 101 % of control | dose: 400.0 mg/kg/injection, schedule: Q01DX005 (ip), vehicle: Klucel (hydroxypropylcellulose) (HPC) 106 % of control

O=C(O)c1ccccc1NC(c1ccccc1)c1ccc2cccnc2c1O (configuration not stated)
inactive: dose: 100.0 mg/kg/injection, schedule: Q04DX003 (ip), vehicle: Klucel (hydroxypropylcellulose) (HPC) 114 % of control and 115 % of control | dose: 200.0 mg/kg/injection, schedule: Q04DX003 (ip), vehicle: Klucel (hydroxypropylcellulose) (HPC) 113 % of control and 119 % of control

COCC(=O)c1ccc([N+](=O)[O-])cc1
inactive: [7] 98 % of control | [8] 103 % of control and 104 % of control | [9] 105 % of control and 111 % of control

COc1ccc2nc(NCCNCCO)cc(NCCNCCO)c2c1
inactive: dose: 30.0 mg/kg/injection, schedule: Q01DX005 (ip), vehicle: water 98 % of control | dose: 60.0 mg/kg/injection, schedule: Q01DX005 (ip), vehicle: water 97 % of control
